In patent US20250230193A1, “CYCLIC COMPOUND HAVING SELECTIVE KRAS INHIBITORY EFFECT ON HRAS AND NRAS” (CHUGAI SEIYAKU KABUSHIKI KAISHA, priority 2022, published 2025):
*1 amine or outer side, *2 acyl side, *3 side chain or, on linkers, in order; H or OH if unused. Where a SMILES comes first, the peptide text is derived from it. Bridges are numbered along the chain shown (N, C = ends). [ ]: non-standard residue; d: D form. The star is where a group is joined. hPhe(3-Cl-4-CF3) = N[C@@H](CCc1ccc(C(F)(F)F)c(Cl)c1)C(=O)O; NPrPhe(4-CF3) = CCCN[C@@H](Cc1ccc(C(F)(F)F)cc1)C(=O)O; NPrAsp = CCCN([C@@H](CC(=O)[*:3])C(=O)[*:2])[*:1]; NEtAsp = CCN([C@@H](CC(=O)[*:3])C(=O)[*:2])[*:1]; NMeGly(cPent) = CN[C@H](C(=O)O)C1CCCC1; Ac4c(3,3-Me2) = CC1(C)CC(N)(C(=O)O)C1; NMeNva(3-Et) = CCC(CC)[C@H](NC)C(=O)O; NMeD = CN[C@@H](CC(=O)O)C(=O)O; NMeL = CN[C@@H](CC(C)C)C(=O)O; NMeNva = CCC[C@H](NC)C(=O)O; Morpholide = C1CN(*)CCO1; NMeA = CN[C@@H](C)C(=O)O; Aze = O=C(O)[C@@H]1CCN1; Ac4c = NC1(C(=O)O)CCC1; Sar = CNCC(=O)O

How the values were obtained:
[1] = biological target: GDP-bound NRAS wild-type protein (Homo sapiens, UniProt P01111); assay: Binding to NRAS by surface plasmon resonance (SPR), Single Cycle Kinetics; conditions: KD ratio, GDP-bound NRAS wild-type vs GDP-bound KRAS wild-type, SPR
Chain of GDP-bound NRAS wild-type protein (P01111 whole entry): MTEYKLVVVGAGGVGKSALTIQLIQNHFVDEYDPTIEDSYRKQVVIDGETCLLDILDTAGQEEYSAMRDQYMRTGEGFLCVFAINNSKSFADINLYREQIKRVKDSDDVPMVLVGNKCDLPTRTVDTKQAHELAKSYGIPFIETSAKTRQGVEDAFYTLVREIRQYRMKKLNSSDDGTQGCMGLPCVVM

[2] = biological target: GDP-bound HRAS wild-type protein (Homo sapiens, UniProt P01112); assay: Binding to HRAS by surface plasmon resonance (SPR), Single Cycle Kinetics; conditions: KD ratio, GDP-bound HRAS wild-type vs GDP-bound KRAS wild-type, SPR
Chain of GDP-bound HRAS wild-type protein (P01112 whole entry): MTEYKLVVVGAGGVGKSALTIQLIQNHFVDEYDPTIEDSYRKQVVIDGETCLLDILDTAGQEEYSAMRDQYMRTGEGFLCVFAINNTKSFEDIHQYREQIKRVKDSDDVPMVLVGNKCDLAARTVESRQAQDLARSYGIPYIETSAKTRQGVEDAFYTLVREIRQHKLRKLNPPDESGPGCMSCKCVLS

| SMILES | NRAS/KRAS (ratio of KD value for NRAS to KD value for KRAS) [1] | HRAS/KRAS (ratio of KD value for HRAS to KD value for KRAS) [2] |
| --- | --- | --- |
| CCC[C@H]1C(=O)N[C@@H]([C@@H](C)CC)C(=O)N(C)CC(=O)N(C)CC(=O)N(CCC)[C@@H](Cc2ccc(C(F)(F)F)cc2)C(=O)N(C)CC(=O)N[C@@H](CCc2ccc(C(F)(F)F)c(Cl)c2)C(=O)N2CCC[C@H]2C(=O)NC2(CCC2)C(=O)N(C)[C@@H](C2CCCC2)C(=O)N(CCC)[C@H](C(=O)N2CCOCC2)CC(=O)N1C [PP1954] ([NMeNva]I[Sar][Sar][NPrPhe(4-CF3)][Sar][hPhe(3-Cl-4-CF3)]P[Ac4c][NMeGly(cPent)][NPrAsp]-Morpholide; lactam N-11) | B (a compound having 3 or more and less than 10 is denoted as B) | B (a compound having 3 or more and less than 10 is denoted as B) |
| CCC[C@H]1C(=O)N[C@@H]([C@@H](C)CC)C(=O)N(C)[C@@H](C)C(=O)N2CC[C@H]2C(=O)N(CCC)[C@@H](Cc2ccc(C(F)(F)F)cc2)C(=O)N(C)CC(=O)N[C@@H](CCc2ccc(C(F)(F)F)c(Cl)c2)C(=O)N2CCC[C@H]2C(=O)NC2(CCC2)C(=O)N(C)[C@@H](C2CCCC2)C(=O)N(CC)[C@H](C(=O)N2CCOCC2)CC(=O)N1C [PP1955] ([NMeNva]I[NMeA][Aze][NPrPhe(4-CF3)][Sar][hPhe(3-Cl-4-CF3)]P[Ac4c][NMeGly(cPent)][NEtAsp]-Morpholide; lactam N-11) | C (A compound having a KD ratio of 0.1 or more and less than 3 is denoted as C) | B (a compound having 3 or more and less than 10 is denoted as B) |
| CCCN1C(=O)CN(C)C(=O)CN(C)C(=O)[C@H]([C@@H](C)CC)NC(=O)[C@H](CC(C)C)N(C)C(=O)C[C@@H](C(=O)N(C)C)N(CC)C(=O)[C@H](C2CCCC2)N(C)C(=O)C2(CCC2)NC(=O)[C@@H]2CCCN2C(=O)[C@H](CCc2ccc(C(F)(F)F)c(Cl)c2)NC(=O)CN(C)C(=O)[C@@H]1Cc1ccc(C(F)(F)F)cc1 [PP1956] ([NMeL]I[Sar][Sar][NPrPhe(4-CF3)][Sar][hPhe(3-Cl-4-CF3)]P[Ac4c][NMeGly(cPent)][NEtAsp]-NMe2; lactam N-11) | B (a compound having 3 or more and less than 10 is denoted as B) | B (a compound having 3 or more and less than 10 is denoted as B) |
| CCCN1C(=O)[C@@H]2CCN2C(=O)[C@H](C)N(C)C(=O)[C@H]([C@@H](C)CC)NC(=O)[C@H](CC(C)C)N(C)C(=O)C[C@@H](C(=O)N(C)C)N(CC)C(=O)[C@H](C2CCCC2)N(C)C(=O)C2(CCC2)NC(=O)[C@@H]2CCCN2C(=O)[C@H](CCc2ccc(C(F)(F)F)c(Cl)c2)NC(=O)CN(C)C(=O)[C@@H]1Cc1ccc(C(F)(F)F)cc1 [PP1957] ([NMeL]I[NMeA][Aze][NPrPhe(4-CF3)][Sar][hPhe(3-Cl-4-CF3)]P[Ac4c][NMeGly(cPent)][NEtAsp]-NMe2; lactam N-11) | C (A compound having a KD ratio of 0.1 or more and less than 3 is denoted as C) | B (a compound having 3 or more and less than 10 is denoted as B) |
| CCCN1C(=O)CN(C)C(=O)CN(C)C(=O)[C@H]([C@@H](C)CC)NC(=O)[C@H](CC(C)C)N(C)C(=O)C[C@@H](C(=O)N2CCOCC2)N(C)C(=O)[C@H](C(CC)CC)N(C)C(=O)C2(CCC2)NC(=O)[C@@H]2CCCN2C(=O)[C@H](CCc2ccc(C(F)(F)F)c(Cl)c2)NC(=O)CN(C)C(=O)[C@@H]1Cc1ccc(C(F)(F)F)cc1 [PP1958] ([NMeL]I[Sar][Sar][NPrPhe(4-CF3)][Sar][hPhe(3-Cl-4-CF3)]P[Ac4c][NMeNva(3-Et)][NMeD]-Morpholide; lactam N-11) | B (a compound having 3 or more and less than 10 is denoted as B) | B (a compound having 3 or more and less than 10 is denoted as B) |
| CCC[C@H]1C(=O)N[C@@H]([C@@H](C)CC)C(=O)N(C)[C@@H](C)C(=O)N2CC[C@H]2C(=O)N(CCC)[C@@H](Cc2ccc(C(F)(F)F)cc2)C(=O)N(C)CC(=O)N[C@@H](CCc2ccc(C(F)(F)F)c(Cl)c2)C(=O)N2CCC[C@H]2C(=O)NC2(CCC2)C(=O)N(C)[C@@H](C(CC)CC)C(=O)N(C)[C@H](C(=O)N2CCOCC2)CC(=O)N1C [PP1959] ([NMeNva]I[NMeA][Aze][NPrPhe(4-CF3)][Sar][hPhe(3-Cl-4-CF3)]P[Ac4c][NMeNva(3-Et)][NMeD]-Morpholide; lactam N-11) | C (A compound having a KD ratio of 0.1 or more and less than 3 is denoted as C) | B (a compound having 3 or more and less than 10 is denoted as B) |
| CCCN1C(=O)CN(C)C(=O)CN(C)C(=O)[C@H]([C@@H](C)CC)NC(=O)[C@H](CC(C)C)N(C)C(=O)C[C@@H](C(=O)N(C)C)N(C)C(=O)[C@H](C(CC)CC)N(C)C(=O)C2(CCC2)NC(=O)[C@@H]2CCCN2C(=O)[C@H](CCc2ccc(C(F)(F)F)c(Cl)c2)NC(=O)CN(C)C(=O)[C@@H]1Cc1ccc(C(F)(F)F)cc1 [PP1960] ([NMeL]I[Sar][Sar][NPrPhe(4-CF3)][Sar][hPhe(3-Cl-4-CF3)]P[Ac4c][NMeNva(3-Et)][NMeD]-NMe2; lactam N-11) | B (a compound having 3 or more and less than 10 is denoted as B) | C (A compound having a KD ratio of 0.1 or more and less than 3 is denoted as C) |
| CCCN1C(=O)[C@@H]2CCN2C(=O)[C@H](C)N(C)C(=O)[C@H]([C@@H](C)CC)NC(=O)[C@H](CC(C)C)N(C)C(=O)C[C@@H](C(=O)N(C)C)N(C)C(=O)[C@H](C(CC)CC)N(C)C(=O)C2(CCC2)NC(=O)[C@@H]2CCCN2C(=O)[C@H](CCc2ccc(C(F)(F)F)c(Cl)c2)NC(=O)CN(C)C(=O)[C@@H]1Cc1ccc(C(F)(F)F)cc1 [PP1961] ([NMeL]I[NMeA][Aze][NPrPhe(4-CF3)][Sar][hPhe(3-Cl-4-CF3)]P[Ac4c][NMeNva(3-Et)][NMeD]-NMe2; lactam N-11) | C (A compound having a KD ratio of 0.1 or more and less than 3 is denoted as C) | C (A compound having a KD ratio of 0.1 or more and less than 3 is denoted as C) |
| CCCN1C(=O)CN(C)C(=O)CN(C)C(=O)[C@H]([C@@H](C)OC)NC(=O)[C@H](CC(C)C)N(C)C(=O)C[C@@H](C(=O)N2CCOCC2)N(C)C(=O)[C@H](C2CCCC2)N(C)C(=O)C2(CC(C)(C)C2)NC(=O)[C@@H]2CCCN2C(=O)[C@H](CCc2ccc(C(F)(F)F)c(Cl)c2)NC(=O)CN(C)C(=O)[C@@H]1Cc1ccc(C(F)(F)F)cc1 [PP1963] ([NMeL]T(Me)[Sar][Sar][NPrPhe(4-CF3)][Sar][hPhe(3-Cl-4-CF3)]P[Ac4c(3,3-Me2)][NMeGly(cPent)][NMeD]-Morpholide; lactam N-11) | B (a compound having 3 or more and less than 10 is denoted as B) | C (A compound having a KD ratio of 0.1 or more and less than 3 is denoted as C) |
